The results in this text go back to patent publication US6034097A, “Isoquinolines useful as analgesics” (Astra AB, priority 1996, dated 2000).

Counter-ions that a name gives are not always drawn.

The target in data set [1] is T1, μ receptors (Rattus norvegicus, UniProt P33535).
T1 construct: the brains minus cerebellum were removed and place in ice-cold saline solution and then homogenized; from tissue; host or cells: rat brain minus cerebellum, membrane homogenate
The data set can be described thus: Radioligand binding assay, μ receptor, (3H)-DAMGO, rat brain membranes. To be noted: Ki from IC50 by Cheng and Prusoff. Here is the method:
(§1) PBQ (phenyl-.rho.-benzoquinone) induced writhing in mice is an assessment of both central and peripheral analgesia. For experimental protocol see Sigmund et al., Proc. Soc. Exp. Biol. Med., 15, p. 729(1957) which is incorporated herein by reference. Central analgesia is determined by the inhibition of a hot-plate response in mice. For experimental protocol see G. Woolfe and A. Macdonald, J. Pharmacol. Exp. Ther., 80, p.300 (1944) which is incorporated herein by reference. Assays measuring opioid receptor binding affinities for μ and δ receptors as well as GPI and MVD assays are determined through experimental protocol set out in Schiller et al., Biophys. Res. Commun., 85, p.1322 (1975) incorporated herein by reference.
(§2) Male Sprague-Dawley rats weighing between 350-450 g were sacrificed by inhalation of CO2. The rats were decapitated and the brains minus cerebellum were removed and place in ice-cold saline solution and then homogenized in ice-cold 50 mM Tris buffer pH 7.4 (10 ml/brain). The membranes were centrifuged at 14000 rpm for 30 min. at 4° C. The pellets were re-suspended in approximately 6 ml/brain of ice-cold Tris buffer 50 mM pH 7.4 and stored at -78° C. until ready for use. Protein quantification of the brain homogenate was conducted according to protein assay kit purchased (Bio-Rad).
(^3 H)-DAMGO and (^3 H) DAGLE were used as radioligands for the μ and δ receptors, respectively. Radioligand 50 μl, membranes 100 μl and serially diluted test compound were incubated for 1 hr at 22° C. Non specific binding was determined using 500 fold excess of unlabeled ligand in the presence of tracer and membranes. Free ligand was separated from bound by filtration through Whatman GF/B paper (presoaked in polyethylenimine 1% aqueous solution) and rinsing with ice-cold 50 mM Tris pH 7.4 using a Brandel cell harvester. The filters were dried and radioactivity was counted in a 24 well microplate in the presence of […] scintillant per well. Radioactivity was measured using a Wallac 1450 Microbeta counter.
(§3) Ki's for the various compounds were determined from the IC50 according to the Cheng and Prusoff equation.

A further data set concerns the target T2, δ receptors (Rattus norvegicus, UniProt P33533).
T2 construct: the brains minus cerebellum were removed and place in ice-cold saline solution and then homogenized; from tissue; host or cells: rat brain minus cerebellum, membrane homogenate
Nature of the data set: Radioligand binding assay, δ receptor, (3H) DAGLE, rat brain membranes. To be noted: Ki from IC50 by Cheng and Prusoff. Here is the method: as §1, §2
(^3 H)-DAMGO and (^3 H) DAGLE were used as radioligands for the μ and δ receptors, respectively. Radioligand 50 μl, membranes 100 μl and serially diluted test compound were incubated for 1 hr at 22° C. Non specific binding was determined using 500 fold excess of unlabeled ligand in the presence of tracer and membranes. […] The filters were dried and radioactivity was counted in a 24 well microplate in the presence of […] scintillant per well. Radioactivity was measured using a Wallac 1450 Microbeta counter.
as §3

For a further data set, the target named is T3, κ receptor (Rattus norvegicus, UniProt P34975).
T3 construct: from tissue
Nature of the data set: Radioligand binding assay, κ receptor (Table 1). To be noted: binding inhibition constant.

Data set [2] deals with μ receptors. Nature of the data set: Guinea Pig Ileum (GPI) assay, longitudinal muscle preparation. The class given is cell-based. Here is the method:
(§4) The opioid activity of the peptides was assessed in vitro using the guinea pig ileum (GPI) longitudinal muscle preparation and their antinociceptive activity was determined in vivo in PBQ induced writhing models (peripheral activity) and in the hot-plate test (central activity) in rodents. […] Peripheral analgesia is shown by a high potency in the writhing test coupled with a low potency in the hot-plate test.
as §1
The activity of the peptide compounds on μ receptors was determined using the Guinea Pig Ileum (GPI) assay (longitudinal muscle preparation) according to the procedures described in Schiller et al., Biophys. Res. Commun., 85, p.1322 (1975).

The next data set deals with CD #1 male mice. The data set can be described thus: PBQ (phenylquinone) induced writhing assay in mice. To be noted: compound by subcutaneous route, dose inducing 50% reduction in number of writhes vs control. The class given is in vivo. Here is the method: The term "ED50 " as shown in table 1 for the PBQ writhing assays is defined as the dose of drug which induces a 50% reduction in the number of writhes observed compared to the control. The term "ED50 " used in the hot-plate assays is defined as the dose of drug required to increase the latency of response 2-fold compared to controls and was determined by parallel-line probit analysis.
as §4, §1
The test was performed on CD #1 male mice weighing between 18 and 22 g. The mice were weighed and marked. They were injected, by intra-peritoneal route, with 0.3 ml/20 g by weight with a solution of phenylquinone at 0.02%. The contortions which appeared during a 15 minute time period following the injection were counted. The phenylquinone was injected at time intervals of 5, 20 or 60 minutes after administration of the compound (or medium, or standard) by subcutaneous route.
The 0.02% phenylquinone solution was prepared in the following fashion. […]
A general note: Writhing tests count abdominal constrictions after an irritant is injected.

Data set [3] can be described thus: In vitro stability in rat whole blood (RWB) at 37° C. The class given is in vitro ADME. Here is the method: (§5) In vitro stability of the compounds of the invention in rat whole blood (RWB) at 37° C. and in kidney brush border protease (KBBP) at 37° C.
The compound was initially dissolved in water or in 10% methyl sulfoxide (DMSO)/water to make a stock solution of 10 mg/ml.
The stock solution was added to 15 ml of freshly harvested rat whole blood and incubated at 37° C.
Blanks were prepared without spiking with compounds in rat whole blood.
Aliquots were then taken at specific time intervals, centrifuged, and a fraction of the supernatant was extracted with acetonitrile or with a solution of acetonitrile and 10% acetic acid.
The solvent(s) was(were) removed by evaporation. The resulting residue was analyzed by HPLC.

The subject of data set [4] is kidney brush border protease (KBBP). The data set can be described thus: In vitro stability in kidney brush border protease (KBBP) at 37° C. The class given is in vitro ADME. To be noted: PBS pH 7.4, 37° C.; for Metabolites in KBBP: up to 1440 minutes. Here is the method: as §5
1.0 mg of the compounds were dissolved in 1 ml PBS pH 7.4 and 500 µL of proteases (1.14 mg of protein/ml) were added.
An initial aliquot was taken at time 0, and the reaction was immediately stopped by placing the sample in a bath of boiling water for 2 minutes (the other time intervals were 5, 15, 30, 60, 120, 1440 minutes).
Blank samples without compounds were also prepared.
The aliquoted samples were filtered on a micron 0.45 filter and the resulting sample were analyzed by HPLC.

T1 sequence (P33535 whole entry): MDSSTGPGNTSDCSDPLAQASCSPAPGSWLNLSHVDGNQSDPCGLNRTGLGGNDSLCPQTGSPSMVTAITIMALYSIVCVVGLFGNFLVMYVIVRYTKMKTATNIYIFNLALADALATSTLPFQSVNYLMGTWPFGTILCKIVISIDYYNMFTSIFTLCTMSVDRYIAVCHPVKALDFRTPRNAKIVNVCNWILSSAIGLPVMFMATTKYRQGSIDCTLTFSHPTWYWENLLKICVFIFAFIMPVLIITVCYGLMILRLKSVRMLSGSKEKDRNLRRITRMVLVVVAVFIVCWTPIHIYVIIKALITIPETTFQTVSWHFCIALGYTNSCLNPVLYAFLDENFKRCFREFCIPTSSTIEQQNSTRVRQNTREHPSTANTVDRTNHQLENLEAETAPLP
T2 sequence (P33533 whole entry): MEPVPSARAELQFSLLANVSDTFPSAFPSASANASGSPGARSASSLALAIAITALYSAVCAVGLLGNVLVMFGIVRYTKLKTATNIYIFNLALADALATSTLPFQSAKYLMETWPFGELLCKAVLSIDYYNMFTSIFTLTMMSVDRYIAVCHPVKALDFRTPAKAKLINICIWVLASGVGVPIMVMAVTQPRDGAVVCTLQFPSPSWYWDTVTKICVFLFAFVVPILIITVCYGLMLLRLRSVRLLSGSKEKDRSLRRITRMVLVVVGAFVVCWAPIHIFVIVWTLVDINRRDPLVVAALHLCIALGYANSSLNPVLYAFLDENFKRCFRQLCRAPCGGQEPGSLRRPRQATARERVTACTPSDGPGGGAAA
T3 sequence (P34975 whole entry): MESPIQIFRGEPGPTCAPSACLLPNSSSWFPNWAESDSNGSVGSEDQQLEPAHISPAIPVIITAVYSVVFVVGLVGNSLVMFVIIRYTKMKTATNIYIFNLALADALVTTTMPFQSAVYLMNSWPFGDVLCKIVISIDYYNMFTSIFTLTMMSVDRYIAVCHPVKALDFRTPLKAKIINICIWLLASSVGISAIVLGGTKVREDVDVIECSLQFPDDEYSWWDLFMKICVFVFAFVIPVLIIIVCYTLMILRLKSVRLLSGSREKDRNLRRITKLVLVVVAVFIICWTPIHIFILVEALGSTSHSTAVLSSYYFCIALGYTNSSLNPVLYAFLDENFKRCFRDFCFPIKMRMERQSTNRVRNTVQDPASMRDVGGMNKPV

For orientation: Ki means a dissociation constant, usually derived from enzyme kinetics or from competition with a known ligand. Broadly, the IC50 is the point on the concentration scale where inhibition reaches its midpoint. High values mean lower potency, low ones higher potency. Compound `Cc1cc(O)cc(C)c1C[C@H](N)C(=O)N1Cc2ccccc2C[C@H]1C(=O)NCC(O)Cc1ccccc1.O=C(O)C(F)(F)F` (stereo partly drawn) [4B, 2-S-(2-Amino-3-(4-hydroxy-2,6-dimethyl-phenyl)-propionyl)-1,2,3,4-tetrahydro-isoquinoline-3-S-carboxylic acid (2-hydroxy-3-phenyl-propyl)amide trifluoroacetic salt] registered a Ki at μ receptors [1] of 0.7 ± 0.27 nM. At δ receptors, this compound had a Ki of 0.1 ± 0.02 nM. This compound yielded a Ki on κ receptor of 20.6 ± 0.5 nM. This compound also displayed an IC50 with μ receptors [2] of 13.8 nM. In the data set with CD #1 male mice, the “ED50 PBQ writhing” value is 16.6 mg/kg. In data set [3], the “Metabolites in RWB” value is given as “none detected” and the “half life in RWB” value was above 5.32 h. In addition, in data set [4], the “half life in KBBP” value is above 24 h and the “Metabolites in KBBP” value was “none detected”.

Take `Cc1cc(O)cc(C)c1CC(NC(=N)N)C(=O)N1Cc2ccccc2C[C@H]1C(=O)NC[C@H](O)Cc1ccccc1` (some centres unmarked) [compound #3, 2-(2-Guanidino-3-(4-hydroxy-2,6-dimethyl-phenyl)-propionyl)-1,2,3,4-tetrahydro-isoquinoline-3-S-carboxylic acid (2-R-hydroxy-3-phenyl-propyl)-amide ditrifloroacetic salt]: the results for the Ki on μ receptors [1] (listed as #3), at δ receptors and on κ receptor (listed as #3) were 2.03 ± 0.37 nM, 0.56 ± 0.09 nM and 277 ± 13.6 nM, respectively.

As to `Cc1cc(O)cc(C)c1CC(NC(=N)N)C(=O)N1Cc2ccccc2C[C@H]1C(=O)NC[C@H](O)Cc1ccccc1.O=C(O)C(F)(F)F.O=C(O)C(F)(F)F` (some centres unmarked) [compound #3A, 2-(2-Guanidino-3-(4-hydroxy-2,6-dimethyl-phenyl)-propionyl)-1,2,3,4-tetrahydro-isoquinoline-3-S-carboxylic acid (2-R-hydroxy-3-phenyl-propyl)-amide ditrifloroacetic salt], the inhibition constant (Ki) on μ receptors [1] (listed as #3A) came to 2.94 ± 0.73 nM; at κ receptor (listed as #3A), 952 ± 122 nM. In addition, the “ED50 PBQ writhing” value in the data set on CD #1 male mice came out at 3.8 mg/kg.

Consider `Cc1cc(O)cc(C)c1CC(NC(=N)N)C(=O)N1Cc2ccccc2C[C@H]1C(=O)NC[C@H](O)Cc1ccccc1` (some centres unmarked) [compound #3B, 2-(2-Guanidino-3-(4-hydroxy-2,6-dimethyl-phenyl)-propionyl)-1,2,3,4-tetrahydro-isoquinoline-3-S-carboxylic acid (2-R-hydroxy-3-phenyl-propyl)-amide ditrifloroacetic salt], for which the Ki at μ receptors [1] (listed as #3B) was determined as 0.5 nM; on κ receptor (listed as #3B), 164 ± 17.5 nM. This compound also returned an IC50 in the data set with μ receptors [2] of 7.3 nM.

For the compound `Cc1cc(O)cc(C)c1C[C@H](N)C(=O)N1Cc2ccccc2C[C@H]1C(=O)NCC(O)Cc1ccccc1.O=C(O)C(F)(F)F` (stereo partly drawn) [compound #4A, 2-S-(2-Amino-3-(4-hydroxy-2,6-dimethyl-phenyl)-propionyl)-1,2,3,4-tetrahydro-isoquinoline-3-S-carboxylic acid (2-hydroxy-3-phenyl-propyl)amide trifluoroacetic salt], in data set [3], the “Metabolites in RWB” value was “none detected” and the “half life in RWB” value is above 2.1 h. Moreover, in data set [4], the “half life in KBBP” value is on record as above 24 h and the “Metabolites in KBBP” value was 1 detected after.

Consider `Cc1cc(O)cc(C)c1CC(N)C(=O)N1Cc2ccccc2C[C@H]1C(=O)NCCCc1ccccc1.O=C(O)C(F)(F)F` (some centres unmarked) [compound #5A, 2-(2-Amino-3-(4-Hydroxy-2,6-dimethyl-phenyl)-propionyl)-1,2,3,4-tetrahydro-isoquinoline-3-S-carboxylic acid (3-phenyl-propyl)amide trifluoroacetic salt], for which, in data set [3], the “Metabolites in RWB” value is “none detected” and the “half life in RWB” value was above 24 h. Also, in data set [4], the “half life in KBBP” value is reported as above 24 h and the “Metabolites in KBBP” value is on record as “none detected”.

For the compound `Cc1cc(O)cc(C)c1CC(N)C(=O)N1Cc2ccccc2CC1C(=O)NCCCc1ccccc1.O=C(O)C(F)(F)F` (centres unmarked) [compound #5B, 2-(2-Amino-3-(4-Hydroxy-2,6-dimethyl-phenyl)-propionyl)-1,2,3,4-tetrahydro-isoquinoline-3-carboxylic acid (3-phenyl-propyl)amide trifluoroacetic salt], in data set [3], the “Metabolites in RWB” value is recorded as “none detected” and the “half life in RWB” value is above 20 h. Moreover, in data set [4], the “half life in KBBP” value is on record as above 24 h and the “Metabolites in KBBP” value is reported as “none detected”.

Consider `Cc1cc(O)cc(C)c1CC(N)C(=O)N1Cc2ccccc2C[C@H]1C(=O)NCCCc1ccccc1.O=C(O)C(F)(F)F` (some centres unmarked) [compound #6A, 2-(2-Amino-3-(4-Hydroxy-2,6-dimethyl-phenyl)-propionyl)-1,2,3,4-tetrahydro-isoquinoline-3-S-carboxylic acid (3-phenyl-propyl)amide trifluoroacetic salt], for which the Ki is 0.11 ± 0.02 nM at μ receptors [1], 0.84 ± 0.08 nM at δ receptors and 49.6 ± 8.7 nM on κ receptor. In addition, half-maximal inhibition in the data set on μ receptors [2] (IC50) required 5.1 nM. The “ED50 PBQ writhing” value with CD #1 male mice turned out to be 2.4 mg/kg.
